From patent US11332463B2, “Spiropiperidine allosteric modulators of nicotinic acetylcholine receptors” (Merck Sharp & Dohme Corp., priority 2018, dated 2022) come the findings set out here.

Read-outs that look alike come from different tables or passages of the source.

The target in this experiment is T1, human α7 nicotinic acetylcholine receptor (HEK cell line stably expressing human RIC-3 and human α7) (Homo sapiens, UniProt P36544).
T1 construct: host or cells: HEK cell line (PrecisION hnAChR α7/RIC-3)
T1 sequence (P36544 23-502): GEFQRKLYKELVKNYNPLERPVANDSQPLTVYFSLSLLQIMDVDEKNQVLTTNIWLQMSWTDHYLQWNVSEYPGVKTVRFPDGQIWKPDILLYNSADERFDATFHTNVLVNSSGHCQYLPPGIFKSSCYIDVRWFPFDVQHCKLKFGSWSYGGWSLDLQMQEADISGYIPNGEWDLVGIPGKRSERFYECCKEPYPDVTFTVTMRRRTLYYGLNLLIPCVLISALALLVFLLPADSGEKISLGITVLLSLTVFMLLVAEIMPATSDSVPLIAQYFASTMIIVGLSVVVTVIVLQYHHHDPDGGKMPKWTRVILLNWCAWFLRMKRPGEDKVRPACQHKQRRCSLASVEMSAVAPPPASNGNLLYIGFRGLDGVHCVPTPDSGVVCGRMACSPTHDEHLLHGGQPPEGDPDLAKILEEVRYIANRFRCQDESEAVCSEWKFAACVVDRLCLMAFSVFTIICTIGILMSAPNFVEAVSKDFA
The experiment can be described thus: Automated patch-clamp electrophysiology functional assay (Assay A), IonFlux HT, whole-cell population patch. The format is cell-based. As for the experimental part: The α7 nAChR positive allosteric modulator (PAM) activity of the present compounds may be tested using assays known in the art. […] The assay was performed using the IonFlux HT in a whole-cell, population patch configuration. See Golden et al. Assay Drug Dev. Technol. […] The compounds were assessed for their ability to modulate the function of the human 7 nAChR stably expressed in a HEK cell line both in the presence, and in the absence of the natural 7 agonist acetylcholine. By performing a series of such measurements at different concentrations, the effective concentration of the 7 nAChR PAMs (EC50) was determined. See Spencer et al. Assay Drug Dev. Technol.
Direct activation of α7 (agonism), and potentiation of acetylcholine-evoked 7 currents was determined as follows:
Automated patch-clamp electrophysiology was performed using the IonFlux HT (Fluxion Biosciences Inc., San Francisco, Calif.) in the whole-cell, population patch configuration. Test compounds were assessed for their ability to modulate the function of the α7 nicotinic acetylcholine receptor both in the presence, and in the absence of the natural α7 agonist acetylcholine. […] Immediately prior to assay, cells were detached by first aspirating growth media, rinsing with Dulbecco's phosphate buffered saline, and then adding 10 mL of Accutase (Innovative Cell Technologies, San Diego, Calif.) to the flask and then incubating at 37° C. for 5 minutes. Detached cells were then recovered by the addition of 40 mL of CHO-serum-free media supplemented with 25 mM HEPES, and rocked gently in a 50 mL conical tube for 20 minutes prior to patch-clamp assay. After recovery, cells were pelleted by centrifugation at 1,000 RPM for 1 minute in a compact bench top centrifuge; recovery media was aspirated and cells were resuspended in external recording solution (150 mM NaCl, 5 mM KCl, 2 mM CaCl2), 1 mM MgCl2, 10 mM HEPES, 12 mM dextrose) to a density of 5.0×10^6 cells/mL. The cell suspension was added to the cell inlet wells on an IonFlux HT population patch plate which had previously been rinsed and primed with deionized H2O. Test compounds were serially diluted in DMSO and then resuspended to the final test concentration in external recording solution, with, or without 40 μM acetylcholine added to the external recording solution; test compounds were then transferred to the IonFlux HT population patch plate. Internal recording solution (110 mM TrisPO4, 28 mM TrisBase, 0.1 mM CaCl2, 2 mM MgCl2, 11 mM EGTA, 4 mM MgATP) was added to the internal recording solution inlet wells on the IonFlux HT patch plate previously loaded with cells and test compounds, and the plate loaded into the IonFlux HT instrument. A protocol was executed on the IonFlux HT to trap the cells, break into the cells, and establish the whole-cell recording configuration; cells were voltage-clamped at a holding potential of −60 mV for the duration of the experiment, all experiments were conducted at room temperature, and the IonFlux HT injection pressure was 8 psi for solution applications. Upon establishing the whole-cell configuration, external recording solution was perfused into the recording chambers for 120 seconds and then 40 μM acetylcholine was applied for 1 second and immediately washed off with external recording solution for 60 seconds. The 40 μM acetylcholine-evoked α7 current served as the current response to which subsequent test compound effects, in the presence, or in the absence of 40 μM acetylcholine would be quantified relative to. Next, test compounds were evaluated at multiple concentrations for their ability to induce, or modulate 7 current responses; three concentrations of test compound were evaluated in ascending dose fashion per recording.

The mark [1] stands for this setting: HEK cells expressing human α7/RIC-3, test compound with or without 40 μM acetylcholine, holding potential −60 mV, room temperature, read-out: α7 nAChR Potency.
Where [2] appears, read: automated patch-clamp electrophysiology functional assay (Assay A), read-out: α7 nAChR EC50.

As to `NS(=O)(=O)N1CCC2(CC2c2nc(-c3conc3C3CC3)no2)C(F)C1` (single isomer, unassigned) [Example I9], the EC50 by setting is: under setting [1], 500 to 5000 nM; under setting [2], 3300 nM.
Take `NS(=O)(=O)N1CCC2(CC2c2nc(-c3conc3C3CC3)no2)C(F)C1` (single isomer, unassigned) [Example I10]: the EC50 reads like this: under setting [1], 500 to 5000 nM; under setting [2], 3400 nM.
In the same order, the values of `NS(=O)(=O)N1CCC2(C(F)C1)C(c1nc(-c3conc3C3CC3)no1)C2(F)F` (single isomer, unassigned) [Example I13] are 500 to 5000 nM and 600 nM.
The corresponding values for `NS(=O)(=O)N1CCC2(C(F)C1)C(c1nc(-c3conc3C3CC3)no1)C2(F)F` (single isomer, unassigned) [Example I14] are 100 to 500 nM and 330 nM.
For `Cc1ccc(C)c(-c2nc(C3C(F)(F)C34C3CCC4CN(S(N)(=O)=O)C3)no2)c1` (single isomer, unassigned) [Example K1], the EC50 runs as follows: under setting [1], < 100 nM; under setting [2], 87 nM.
In the same order, the values of `Cc1ccc(C)c(-c2noc([C@@H]3C(F)(F)C34CCN(S(C)(=O)=O)CC4)n2)c1` (stereo in doubt) [Example 32, 2-[3-(2,5-Dimethylphenyl)-1,2,4-oxadiazol-5-yl]-1,1-difluoro-6-(methylsulfonyl)-6-azaspiro[2.5]octane] are 500 to 5000 nM and 910 nM.
For `NS(=O)(=O)N1CCC2(CC1)[C@H](c1ccn(-c3ccc(F)cc3C(F)(F)F)n1)C2(F)F` (stereo in doubt) [Example 36, 1,1-Difluoro-2-{1-[4-fluoro-2-(trifluoromethyl)phenyl]-1H-pyrazol-3-yl}-6-azaspiro[2.5]octane-6-sulfonamide], the EC50 is 500 to 5000 nM under setting [1] and 890 nM under setting [2].
The corresponding values for `NS(=O)(=O)N1CCC2(CC1)[C@H](c1nsc(-c3ccc(F)cc3C(F)(F)F)n1)C2(F)F` (stereo in doubt) [Example 37, 1,1-Difluoro-2-{5-[4-fluoro-2-(trifluoromethyl)phenyl]-1,2,4-thiadiazol-3-yl}-6-azaspiro[2.5]octane-6-sulfonamide] are 500 to 5000 nM and 1200 nM.
The corresponding values for `Cc1ccc(C(F)(F)F)cc1-c1nc([C@@H]2CC23CCN(S(N)(=O)=O)CC3)no1` [Example 1, (1R)-1-{5-[2-Methyl-5-(trifluoromethyl)phenyl]-1,2,4-oxadiazol-3-yl}-6-azaspiro[2.5]octane-6-sulfonamide] are < 100 nM and 98 nM.
The corresponding values for `Cc1ccc(C)c(-c2nc([C@@H]3CC34CCN(S(N)(=O)=O)CC4)no2)c1` [Example 2, (1R)-1-[5-(2,5-Dimethylphenyl)-1,2,4-oxadiazol-3-yl]-6-azaspiro[2.5]octane-6-sulfonamide] are < 100 nM and 82 nM.
As for `NS(=O)(=O)N1CCC2(CC2c2nc(-c3cccc(OCC(F)(F)F)c3)no2)C(F)(F)C1` (stereo not shown) [Example 3, 4,4-Difluoro-1-{3-[3-(2,2,2-trifluoroethoxy)phenyl]-1,2,4-oxadiazol-5-yl}-6-azaspiro[2.5]octane-6-sulfonamide], the EC50 was 500 to 5000 nM under setting [1] and 1300 nM under setting [2].
The corresponding values for `NS(=O)(=O)N1CCC2(CC2c2nc(-c3cccc(OC(F)F)c3)no2)C(F)C1` (stereo not shown) [Example 4, 1-{3-[3-(Difluoromethoxy)phenyl]-1,2,4-oxadiazol-5-yl}-4-fluoro-6-azaspiro[2.5]octane-6-sulfonamide] are 100 to 500 nM and 350 nM.
In the same order, the values of `NS(=O)(=O)N1CCC2(CC1)C[C@H]2c1nc(-c2ccc(F)cc2C(F)(F)F)no1` [Example 5, (1R)-1-{3-[4-Fluoro-2-(trifluoromethyl)phenyl]-1,2,4-oxadiazol-5-yl}-6-azaspiro[2.5]octane-6-sulfonamide] are 500 to 5000 nM and 1200 nM.
On to `CC1CN(S(N)(=O)=O)CCC12CC2c1nc(-c2ccc(F)cc2C(F)(F)F)no1` (stereo not shown) [Example 6, 1-{3-[4-Fluoro-2-(trifluoromethyl)phenyl]-1,2,4-oxadiazol-5-yl}-4-methyl-6-azaspiro[2.5]octane-6-sulfonamide], for which the EC50 under setting [1] lay within 100 to 500 nM and the EC50 under setting [2] came to 280 nM.
In the same order, the values of `NS(=O)(=O)N1CCC2(CC1)C[C@H]2c1csc(-c2cccc(OC(F)(F)F)c2)n1` [Example 7, (1R)-1-{2-[3-(Trifluoromethoxy)phenyl]-1,3-thiazol-4-yl}-6-azaspiro[2.5]octane-6-sulfonamide] are 500 to 5000 nM and 1100 nM.
The corresponding values for `Cc1cnn(CC(F)(F)F)c1-c1nc([C@@H]2CC23CCN(S(N)(=O)=O)CC3)no1` [Example 8, (1R)-1-{5-[4-Methyl-1-(2,2,2-trifluoroethyl)-1H-pyrazol-5-yl]-1,2,4-oxadiazol-3-yl}-6-azaspiro[2.5]octane-6-sulfonamide] are 100 to 500 nM and 230 nM.
The corresponding values for `Cc1cnn(C)c1-c1nc([C@@H]2C(F)(F)C23CCN(S(N)(=O)=O)CC3)no1` [Example 9, (2R)-2-[5-(1,4-Dimethyl-1H-pyrazol-5-yl)-1,2,4-oxadiazol-3-yl]-1,1-difluoro-6-azaspiro[2.5]octane-6-sulfonamide] are < 100 nM and 75 nM.
For `NS(=O)(=O)N1CCC2(CC1)[C@H](c1noc(-c3ccnc(OC(F)F)c3)n1)C2(F)F` [Example 10, (2R)-2-{5-[2-(Difluoromethoxy)pyridin-4-yl]-1,2,4-oxadiazol-3-yl}-1,1-difluoro-6-azaspiro[2.5]octane-6-sulfonamide], the EC50 was 100 to 500 nM under setting [1] and 220 nM under setting [2].
In the same order, the values of `NS(=O)(=O)N1CCC2(CC1)[C@H](c1nc(-c3conc3C3CC3)no1)C2(F)F` [Example 11, (2R)-2-[3-(3-Cyclopropylisoxazol-4-yl)-1,2,4-oxadiazol-5-yl]-1,1-difluoro-6-azaspiro[2.5]octane-6-sulfonamide] are < 100 nM and 58 nM.
In the same order, the values of `NS(=O)(=O)N1CCC2(CC1)[C@H](c1nc(-c3ccnn3CC(F)(F)F)no1)C2(F)F` [Example 12, (2R)-1,1-Difluoro-2-{3-[1-(2,2,2-trifluoroethyl)-1H-pyrazol-5-yl]-1,2,4-oxadiazol-5-yl}-6-azaspiro[2.5]octane-6-sulfonamide] are 100 to 500 nM and 220 nM.
In the same order, the values of `Cc1cnc(OC(F)F)cc1-c1nc([C@@H]2C(F)(F)C23CCN(S(N)(=O)=O)CC3)no1` [Example 13, (2R)-2-{5-[2-(Difluoromethoxy)-5-methylpyridin-4-yl]-1,2,4-oxadiazol-3-yl}-1,1-difluoro-6-azaspiro[2.5]octane-6-sulfonamide] are < 100 nM and 73 nM.
For `Cn1ncc(C(F)(F)F)c1-c1nc([C@@H]2C(F)(F)C23CCN(S(N)(=O)=O)CC3)no1` [Example 14, (2R)-1,1-Difluoro-2-{5-[1-methyl-4-(trifluoromethyl)-1H-pyrazol-5-yl]-1,2,4-oxadiazol-3-yl}-6-azaspiro[2.5]octane-6-sulfonamide], the EC50 is < 100 nM under setting [1] and 49 nM under setting [2].
The corresponding values for `NS(=O)(=O)N1CCC2(CC1)C[C@H]2c1cnn(-c2cccc(OC(F)(F)F)c2)c1` [Example 15, (1R)-1-{1-[3-(Trifluoromethoxy)phenyl]-1H-pyrazol-4-yl}-6-azaspiro[2.5]octane-6-sulfonamide] are 100 to 500 nM and 330 nM.
